From ChEMBL document CHEMBL1201862, “PubChem BioAssay data set” (2004)
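How tested: cells in 96-well plates exposed to compound for 48 hours at five concentrations. Here, GI50 denotes the concentration required for 50% inhibition of growth.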 Active and inactive are the calls of the source. Cut-off read from the data, not from the text of the source: active = GI50 up to about 1.1 µM and inactive = higher.

Tests used:
Test in all cases: NCI tumour cell line growth inhibition, 48 h
A498 = test system: A498
BT-549 = test system: BT-549
COLO 205 = test system: COLO 205
EKVX = test system: EKVX
HOP-92 = test system: HOP-92
IGROV-1 = test system: IGROV-1
KM12 = test system: KM12
M14 = test system: M14
MOLT-4 = test system: MOLT-4
NCI-H226 = test system: NCI-H226
OVCAR-8 = test system: OVCAR-8
PC-3 = test system: PC-3
SF-295 = test system: SF-295
SF-539 = test system: SF-539
SK-MEL-28 = test system: SK-MEL-28
SK-MEL-5 = test system: SK-MEL-5
Malme-3M = test system: Malme-3M
SF-268 = test system: SF-268
SK-OV-3 = test system: SK-OV-3
HL-60 = test system: HL-60

Measured: GI50

CCOC(=O)c1cn(-c2ccc([N+](=O)[O-])cc2)c(=S)n2c1nc1ccccc12
inactive: A498 20.6 µM | BT-549 35 µM | COLO 205 23.2 µM | EKVX 53.7 µM | HOP-92 18.5 µM | IGROV-1 54.1 µM | KM12 30.1 µM | M14 61 µM | MOLT-4 28 µM | NCI-H226 37.2 µM | OVCAR-8 35.5 µM | PC-3 13.6 µM | SF-295 45.6 µM | SF-539 32 µM | SK-MEL-28 49.9 µM | SK-MEL-5 21.9 µM

O=C(Nc1ccc2[nH]c(C(=O)N3CC(CCl)c4c3cc([N+](=O)[O-])c3ccccc43)cc2c1)Nc1ccc2[nH]c(C(=O)N3CC(CCl)c4c3cc([N+](=O)[O-])c3ccccc43)cc2c1 (stereo not drawn)
inactive: A498 > 100 µM | BT-549 > 100 µM | COLO 205 > 100 µM | EKVX > 100 µM | HOP-92 > 100 µM | KM12 > 100 µM | M14 31.3 µM | Malme-3M > 100 µM | NCI-H226 > 100 µM | PC-3 > 100 µM | SF-268 > 100 µM | SF-295 > 100 µM | SF-539 > 100 µM | SK-MEL-28 > 100 µM | SK-MEL-5 > 100 µM | SK-OV-3 > 100 µM

COc1cc(/C=C/c2cc(/C=C/c3ccc(O)c(OC)c3)oc(=O)c2)ccc1O
inactive: A498 3.9 µM | BT-549 3.23 µM | COLO 205 13.1 µM | EKVX 3.1 µM | HOP-92 4.67 µM | IGROV-1 4.67 µM | KM12 3.18 µM | M14 5.09 µM | MOLT-4 3.48 µM | Malme-3M 2.66 µM | NCI-H226 10.5 µM | OVCAR-8 4.12 µM | PC-3 3.91 µM | SF-268 3.94 µM | SF-295 2.74 µM | SF-539 6.79 µM | SK-MEL-28 6.32 µM | SK-MEL-5 4.99 µM | SK-OV-3 9.04 µM

C[C@@H]1C(=O)O[C@H]1[C@H](O)CO
inactive: A498 > 100 µM | BT-549 > 100 µM | COLO 205 > 100 µM | EKVX > 100 µM | HL-60 > 100 µM | HOP-92 63.1 µM | KM12 > 100 µM | M14 > 100 µM | MOLT-4 34.1 µM | OVCAR-8 > 100 µM | PC-3 > 100 µM | SF-295 > 100 µM | SK-MEL-28 > 100 µM | SK-MEL-5 > 100 µM | SK-OV-3 > 100 µM

O=C1C[C@H](CCC(=O)OCc2ccccc2)NC(=O)C[C@H](CCC(=O)OCc2ccccc2)NC(=O)C[C@H](CCC(=O)OCc2ccccc2)N1
inactive: A498 7.57 µM | BT-549 24.3 µM | COLO 205 > 100 µM | EKVX > 100 µM | HOP-92 3.92 µM | IGROV-1 50.2 µM | KM12 > 100 µM | M14 > 100 µM | MOLT-4 > 100 µM | Malme-3M > 100 µM | NCI-H226 > 100 µM | OVCAR-8 > 100 µM | PC-3 > 100 µM | SF-295 8.81 µM | SF-539 5.64 µM | SK-MEL-28 > 100 µM | SK-MEL-5 > 100 µM | SK-OV-3 5.92 µM

CN(C)c1ccc(/C=C2\N=C(c3ccccc3)N(c3nc4c(Cl)cc(Cl)cc4s3)C2=O)cc1
inactive: A498 27.4 µM | BT-549 54.3 µM | COLO 205 55.8 µM | EKVX 21.8 µM | HL-60 24.9 µM | HOP-92 24.5 µM | IGROV-1 41 µM | KM12 34.2 µM | M14 75.7 µM | MOLT-4 22.6 µM | OVCAR-8 61.9 µM | PC-3 32.4 µM | SF-268 48.6 µM | SF-295 93.8 µM | SF-539 > 100 µM | SK-MEL-28 54.6 µM | SK-MEL-5 41.8 µM | SK-OV-3 > 100 µM

O=C(O)CC12CC3CC(CC(O)(C3)C1)C2
inactive: A498 > 100 µM | BT-549 > 100 µM | COLO 205 > 100 µM | EKVX > 100 µM | HOP-92 > 100 µM | IGROV-1 > 100 µM | KM12 > 100 µM | M14 > 100 µM | Malme-3M 34.7 µM | NCI-H226 > 100 µM | OVCAR-8 > 100 µM | PC-3 > 100 µM | SF-268 31 µM | SF-295 > 100 µM | SF-539 > 100 µM | SK-MEL-28 > 100 µM | SK-MEL-5 > 100 µM | SK-OV-3 > 100 µM

O=C1C(=Cc2ccccc2O)N=C(c2ccccc2)N1n1c(-c2ccccc2)nc2ccccc2c1=O
inactive: A498 21.5 µM | BT-549 28.8 µM | COLO 205 35.7 µM | EKVX 30.6 µM | HL-60 15.2 µM | IGROV-1 34.4 µM | KM12 30.3 µM | M14 19.3 µM | MOLT-4 26.7 µM | Malme-3M 45.7 µM | NCI-H226 31.6 µM | OVCAR-8 31.3 µM | PC-3 34 µM | SF-268 21.3 µM | SF-295 22.8 µM | SF-539 21.8 µM | SK-MEL-28 33.8 µM | SK-MEL-5 19.1 µM | SK-OV-3 48.3 µM

CCc1nn(CN2CCOCC2)c(=S)n1/N=C/c1ccc(-c2ccc(Cl)cc2)o1
inactive: A498 > 100 µM | BT-549 > 100 µM | EKVX > 100 µM | HL-60 81.1 µM | HOP-92 > 100 µM | IGROV-1 > 100 µM | KM12 > 100 µM | M14 > 100 µM | MOLT-4 > 100 µM | NCI-H226 > 100 µM | OVCAR-8 > 100 µM | PC-3 > 100 µM | SF-268 > 100 µM | SF-295 > 100 µM | SF-539 > 100 µM | SK-MEL-28 > 100 µM | SK-MEL-5 > 100 µM

CCOC(=O)Cn1c(C)nc2nn(Cc3ccccc3)cc2c1=O
inactive: A498 > 100 µM | BT-549 > 100 µM | EKVX > 100 µM | HOP-92 > 100 µM | IGROV-1 > 100 µM | KM12 > 100 µM | M14 > 100 µM | MOLT-4 > 100 µM | Malme-3M > 100 µM | NCI-H226 > 100 µM | OVCAR-8 > 100 µM | PC-3 > 100 µM | SF-268 > 100 µM | SF-295 > 100 µM | SF-539 > 100 µM | SK-MEL-28 > 100 µM | SK-MEL-5 > 100 µM | SK-OV-3 > 100 µM

CC1N=C(c2ccccc2)OC1=O (stereo not drawn)
inactive: A498 > 100 µM | BT-549 > 100 µM | COLO 205 > 100 µM | EKVX > 100 µM | HOP-92 > 100 µM | IGROV-1 > 100 µM | KM12 > 100 µM | M14 > 100 µM | MOLT-4 > 100 µM | Malme-3M > 100 µM | NCI-H226 > 100 µM | OVCAR-8 > 100 µM | PC-3 > 100 µM | SF-268 > 100 µM | SF-295 > 100 µM | SF-539 > 100 µM | SK-MEL-28 > 100 µM | SK-MEL-5 > 100 µM | SK-OV-3 > 100 µM

NNc1ncnc2cccc(Cl)c12
inactive: A498 > 100 µM | BT-549 > 100 µM | COLO 205 > 100 µM | EKVX 17.8 µM | HL-60 > 100 µM | IGROV-1 > 100 µM | KM12 > 100 µM | M14 > 100 µM | MOLT-4 > 100 µM | Malme-3M 2.02 µM | NCI-H226 > 100 µM | OVCAR-8 > 100 µM | PC-3 > 100 µM | SF-268 > 100 µM | SF-295 > 100 µM | SF-539 > 100 µM | SK-MEL-28 > 100 µM | SK-MEL-5 > 100 µM | SK-OV-3 > 100 µM

CC1=NC(=Cc2ccc(Cl)cc2)C(=O)N1n1c(-c2ccccc2)nc2ccccc2c1=O
inactive: A498 24.6 µM | BT-549 40.6 µM | COLO 205 32.4 µM | EKVX 27.2 µM | HL-60 26.3 µM | IGROV-1 31.6 µM | KM12 36.4 µM | M14 39.4 µM | MOLT-4 34.5 µM | Malme-3M 33.2 µM | NCI-H226 > 100 µM | OVCAR-8 39.4 µM | PC-3 24.3 µM | SF-268 51.9 µM | SF-295 40.9 µM | SF-539 35.1 µM | SK-MEL-28 51.4 µM | SK-MEL-5 36.7 µM | SK-OV-3 38.5 µM

COC(=O)N[C@H](C(=O)O)C(C)O[Si](C)(C)C(C)(C)C (stereo partly drawn)
inactive: A498 > 100 µM | BT-549 > 100 µM | COLO 205 > 100 µM | EKVX > 100 µM | HL-60 > 100 µM | IGROV-1 > 100 µM | KM12 > 100 µM | MOLT-4 > 100 µM | Malme-3M > 100 µM | NCI-H226 > 100 µM | OVCAR-8 > 100 µM | PC-3 > 100 µM | SF-268 > 100 µM | SF-295 > 100 µM | SF-539 > 100 µM | SK-MEL-28 > 100 µM | SK-MEL-5 > 100 µM | SK-OV-3 > 100 µM

COc1cc2c(cc1C)NC(=O)/C2=C/c1c(Cl)n(-c2ccccc2)c2ccccc12
inactive: A498 32.8 µM | BT-549 17.3 µM | COLO 205 5.86 µM | EKVX 17.5 µM | HL-60 3.38 µM | HOP-92 23 µM | IGROV-1 34.4 µM | KM12 7.31 µM | M14 27.4 µM | MOLT-4 4.82 µM | Malme-3M 18.4 µM | OVCAR-8 23.4 µM | PC-3 4.41 µM | SF-268 20.6 µM | SF-295 11.3 µM | SF-539 11.1 µM | SK-MEL-28 21.8 µM | SK-MEL-5 10.5 µM | SK-OV-3 24.4 µM
